Experiments:
Test in all cases: KiNativ chemical proteomics profiling in HeLa and PC3 cell lysates
Format in all cases: binding
[1] = molecular target: T1, selected panels of kinases in HeLa and PC3 cell lysates (Homo sapiens, UniProt O94921); settings: 10 uM; PFTAIRE1; peptide LVALkVIR; proteome PC3; labeling site Lys1
T1 construct: endogenous in cells; host or cells: HeLa and PC3 cell lysates

[2] = molecular target: T2, selected panels of kinases in HeLa and PC3 cell lysates (Homo sapiens, UniProt P42680); settings: 10 uM; TEC; peptide […]kFPVK; proteome HEL; labeling site Activation Loop
T2 construct: endogenous in cells; host or cells: HeLa and PC3 cell lysates
T2 sequence (P42680 whole entry): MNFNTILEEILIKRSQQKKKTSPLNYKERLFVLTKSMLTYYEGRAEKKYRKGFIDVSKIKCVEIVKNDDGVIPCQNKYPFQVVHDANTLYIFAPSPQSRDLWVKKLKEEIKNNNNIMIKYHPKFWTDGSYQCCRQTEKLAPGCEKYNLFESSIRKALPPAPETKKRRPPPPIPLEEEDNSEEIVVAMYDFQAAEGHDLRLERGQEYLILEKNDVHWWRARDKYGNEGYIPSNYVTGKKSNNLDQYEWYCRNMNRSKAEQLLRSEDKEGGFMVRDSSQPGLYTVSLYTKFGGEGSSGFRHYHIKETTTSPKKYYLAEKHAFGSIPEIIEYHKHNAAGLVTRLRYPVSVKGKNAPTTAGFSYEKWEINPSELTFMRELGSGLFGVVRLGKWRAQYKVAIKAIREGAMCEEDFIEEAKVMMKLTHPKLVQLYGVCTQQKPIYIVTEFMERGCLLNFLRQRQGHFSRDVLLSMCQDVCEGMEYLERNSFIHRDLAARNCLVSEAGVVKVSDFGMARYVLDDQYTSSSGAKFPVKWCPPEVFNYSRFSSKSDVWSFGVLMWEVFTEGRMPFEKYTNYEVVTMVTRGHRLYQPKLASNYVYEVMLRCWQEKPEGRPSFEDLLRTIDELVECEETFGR

[3] = molecular target: T3, selected panels of kinases in HeLa and PC3 cell lysates (Homo sapiens, UniProt P50613); settings: 10 uM; proteome HEL; peptide DLk[…]; labeling site Lys2
T3 construct: endogenous in cells; host or cells: HeLa and PC3 cell lysates
T3 sequence (P50613 whole entry): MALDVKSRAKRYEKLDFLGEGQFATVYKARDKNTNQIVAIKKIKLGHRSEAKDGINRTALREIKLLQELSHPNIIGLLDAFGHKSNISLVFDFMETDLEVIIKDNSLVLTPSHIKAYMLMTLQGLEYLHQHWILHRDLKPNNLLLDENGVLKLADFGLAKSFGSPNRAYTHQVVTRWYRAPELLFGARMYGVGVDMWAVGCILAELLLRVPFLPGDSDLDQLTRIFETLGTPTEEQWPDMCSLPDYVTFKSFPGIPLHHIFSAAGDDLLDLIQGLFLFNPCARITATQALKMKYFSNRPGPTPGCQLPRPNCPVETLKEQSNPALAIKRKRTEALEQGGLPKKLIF

[4] = molecular target: T4, selected panels of kinases in HeLa and PC3 cell lysates (Homo sapiens, UniProt Q04912); settings: 10 uM; RON; peptide IQCAIkSLSR; proteome PC3; labeling site Lys1
T4 construct: endogenous in cells; host or cells: HeLa and PC3 cell lysates
T4 sequence (Q04912 25-1400): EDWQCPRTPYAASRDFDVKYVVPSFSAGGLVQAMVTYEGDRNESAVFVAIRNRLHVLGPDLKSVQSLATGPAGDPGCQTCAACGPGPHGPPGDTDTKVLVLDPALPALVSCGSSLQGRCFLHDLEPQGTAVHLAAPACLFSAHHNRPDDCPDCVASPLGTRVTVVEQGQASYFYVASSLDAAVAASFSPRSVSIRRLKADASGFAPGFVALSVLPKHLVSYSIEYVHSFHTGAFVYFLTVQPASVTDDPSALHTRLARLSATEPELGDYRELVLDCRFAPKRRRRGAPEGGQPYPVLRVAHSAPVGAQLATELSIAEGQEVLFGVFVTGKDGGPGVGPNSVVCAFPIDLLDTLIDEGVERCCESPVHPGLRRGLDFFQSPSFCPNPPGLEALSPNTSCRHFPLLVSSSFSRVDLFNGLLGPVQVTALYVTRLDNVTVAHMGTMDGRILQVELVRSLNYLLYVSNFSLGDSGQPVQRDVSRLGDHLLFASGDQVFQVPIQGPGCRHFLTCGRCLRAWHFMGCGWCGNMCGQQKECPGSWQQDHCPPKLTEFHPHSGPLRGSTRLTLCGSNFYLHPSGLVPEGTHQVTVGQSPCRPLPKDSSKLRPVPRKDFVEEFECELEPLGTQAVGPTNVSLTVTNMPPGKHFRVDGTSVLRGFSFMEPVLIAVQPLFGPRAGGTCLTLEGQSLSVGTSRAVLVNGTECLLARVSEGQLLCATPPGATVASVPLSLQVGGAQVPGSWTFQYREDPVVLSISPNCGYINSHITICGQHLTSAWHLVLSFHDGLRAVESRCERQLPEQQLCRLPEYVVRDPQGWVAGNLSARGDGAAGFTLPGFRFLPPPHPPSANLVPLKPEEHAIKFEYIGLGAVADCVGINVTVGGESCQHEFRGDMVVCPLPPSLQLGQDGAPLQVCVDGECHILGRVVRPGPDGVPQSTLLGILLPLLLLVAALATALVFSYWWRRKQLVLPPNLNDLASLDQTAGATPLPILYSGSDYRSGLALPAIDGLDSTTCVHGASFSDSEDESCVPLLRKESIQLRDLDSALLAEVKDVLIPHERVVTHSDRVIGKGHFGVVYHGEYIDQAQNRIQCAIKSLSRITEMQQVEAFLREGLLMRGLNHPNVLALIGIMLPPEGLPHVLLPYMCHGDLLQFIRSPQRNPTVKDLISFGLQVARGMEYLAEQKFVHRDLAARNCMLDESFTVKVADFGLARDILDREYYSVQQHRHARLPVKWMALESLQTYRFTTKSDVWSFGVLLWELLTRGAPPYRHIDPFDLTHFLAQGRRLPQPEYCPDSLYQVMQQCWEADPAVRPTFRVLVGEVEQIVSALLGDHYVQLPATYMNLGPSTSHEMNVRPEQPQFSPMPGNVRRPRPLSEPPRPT

[5] = molecular target: T5, selected panels of kinases in HeLa and PC3 cell lysates (Homo sapiens, UniProt Q07912); settings: 10 uM; proteome HEL; peptide TVSVAVk[…]; labeling site Lys1
T5 construct: endogenous in cells; host or cells: HeLa and PC3 cell lysates
T5 sequence (Q07912 whole entry): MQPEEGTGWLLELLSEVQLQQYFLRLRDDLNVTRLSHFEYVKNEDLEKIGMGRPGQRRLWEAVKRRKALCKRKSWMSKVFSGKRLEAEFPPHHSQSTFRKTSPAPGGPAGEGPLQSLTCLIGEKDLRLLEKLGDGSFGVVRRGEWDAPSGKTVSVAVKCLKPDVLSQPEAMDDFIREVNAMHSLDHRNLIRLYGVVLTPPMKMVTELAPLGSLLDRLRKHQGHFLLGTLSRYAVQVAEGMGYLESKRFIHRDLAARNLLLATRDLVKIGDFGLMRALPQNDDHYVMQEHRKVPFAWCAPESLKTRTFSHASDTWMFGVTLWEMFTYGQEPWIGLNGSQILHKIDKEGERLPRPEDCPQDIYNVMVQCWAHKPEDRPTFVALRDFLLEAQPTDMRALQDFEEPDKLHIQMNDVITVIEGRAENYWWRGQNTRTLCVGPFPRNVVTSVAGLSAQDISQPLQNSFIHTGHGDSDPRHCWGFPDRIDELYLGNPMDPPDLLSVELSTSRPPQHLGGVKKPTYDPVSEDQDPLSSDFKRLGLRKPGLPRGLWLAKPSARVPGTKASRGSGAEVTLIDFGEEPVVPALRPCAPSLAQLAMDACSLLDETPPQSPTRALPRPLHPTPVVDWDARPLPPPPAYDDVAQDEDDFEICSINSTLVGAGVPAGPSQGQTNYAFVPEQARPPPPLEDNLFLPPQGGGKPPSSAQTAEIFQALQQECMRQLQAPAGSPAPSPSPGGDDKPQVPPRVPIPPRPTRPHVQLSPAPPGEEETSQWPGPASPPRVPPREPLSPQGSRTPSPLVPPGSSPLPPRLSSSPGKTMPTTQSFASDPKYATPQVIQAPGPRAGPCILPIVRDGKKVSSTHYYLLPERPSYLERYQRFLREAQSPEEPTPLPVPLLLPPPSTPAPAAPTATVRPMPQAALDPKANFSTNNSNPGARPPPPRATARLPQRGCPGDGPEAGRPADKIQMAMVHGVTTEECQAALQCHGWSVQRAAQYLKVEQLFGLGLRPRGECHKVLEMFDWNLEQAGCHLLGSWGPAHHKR

[6] = molecular target: T6, selected panels of kinases in HeLa and PC3 cell lysates (Homo sapiens, UniProt Q13188); settings: 10 uM, peptide […]k[…], labeling site Lys1
T6 construct: endogenous in cells; host or cells: HeLa and PC3 cell lysates
T6 sequence (Q13188 1-491): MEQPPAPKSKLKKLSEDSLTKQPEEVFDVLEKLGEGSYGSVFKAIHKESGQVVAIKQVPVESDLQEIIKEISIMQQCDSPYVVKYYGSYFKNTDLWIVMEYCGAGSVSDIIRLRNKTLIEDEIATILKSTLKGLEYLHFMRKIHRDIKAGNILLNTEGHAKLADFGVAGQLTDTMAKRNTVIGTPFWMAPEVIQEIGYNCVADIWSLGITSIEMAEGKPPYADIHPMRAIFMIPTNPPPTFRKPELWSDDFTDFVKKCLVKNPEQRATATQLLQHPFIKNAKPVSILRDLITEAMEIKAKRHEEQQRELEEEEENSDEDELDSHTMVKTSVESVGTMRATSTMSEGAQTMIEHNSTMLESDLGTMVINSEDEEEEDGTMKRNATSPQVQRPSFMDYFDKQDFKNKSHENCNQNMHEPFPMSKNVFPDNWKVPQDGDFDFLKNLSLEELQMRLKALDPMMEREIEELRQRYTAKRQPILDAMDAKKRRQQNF

[7] = molecular target: T7, selected panels of kinases in HeLa and PC3 cell lysates (Homo sapiens, UniProt Q96S44); settings: 10 uM, PRPK, peptide FLSGLELVkQGAEAR, labeling site ATP Loop
T7 construct: endogenous in cells; host or cells: HeLa and PC3 cell lysates
T7 sequence (Q96S44 1-253): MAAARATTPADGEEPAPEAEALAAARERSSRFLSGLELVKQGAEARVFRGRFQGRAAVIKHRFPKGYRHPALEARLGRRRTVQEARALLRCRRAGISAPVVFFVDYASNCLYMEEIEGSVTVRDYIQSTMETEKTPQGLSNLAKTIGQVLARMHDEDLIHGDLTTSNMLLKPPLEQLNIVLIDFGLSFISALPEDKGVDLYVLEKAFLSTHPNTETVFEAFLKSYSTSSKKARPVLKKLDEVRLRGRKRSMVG

[8] = molecular target: T8, selected panels of kinases in HeLa and PC3 cell lysates (Homo sapiens, UniProt Q9NWZ3); settings: 10 uM, peptide DIk[…], labeling site Lys2
T8 construct: endogenous in cells; host or cells: HeLa and PC3 cell lysates
T8 sequence (Q9NWZ3 1-460): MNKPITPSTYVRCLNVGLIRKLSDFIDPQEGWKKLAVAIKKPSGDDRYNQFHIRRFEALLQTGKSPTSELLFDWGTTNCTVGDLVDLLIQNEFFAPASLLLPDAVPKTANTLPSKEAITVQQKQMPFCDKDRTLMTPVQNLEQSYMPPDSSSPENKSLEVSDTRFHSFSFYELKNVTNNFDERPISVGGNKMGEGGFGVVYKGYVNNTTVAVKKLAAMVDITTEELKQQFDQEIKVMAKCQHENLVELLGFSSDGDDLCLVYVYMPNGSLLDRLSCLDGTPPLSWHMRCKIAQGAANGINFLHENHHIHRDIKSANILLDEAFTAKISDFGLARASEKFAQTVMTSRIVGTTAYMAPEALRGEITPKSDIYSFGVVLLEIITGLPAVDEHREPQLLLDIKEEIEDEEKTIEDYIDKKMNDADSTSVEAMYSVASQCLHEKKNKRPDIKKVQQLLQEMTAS

[9] = molecular target: T9, selected panels of kinases in HeLa and PC3 cell lysates (Homo sapiens, UniProt Q9Y5S2); settings: 10 uM, proteome PC3
T9 construct: endogenous in cells; host or cells: HeLa and PC3 cell lysates
T9 sequence (Q9Y5S2 whole entry): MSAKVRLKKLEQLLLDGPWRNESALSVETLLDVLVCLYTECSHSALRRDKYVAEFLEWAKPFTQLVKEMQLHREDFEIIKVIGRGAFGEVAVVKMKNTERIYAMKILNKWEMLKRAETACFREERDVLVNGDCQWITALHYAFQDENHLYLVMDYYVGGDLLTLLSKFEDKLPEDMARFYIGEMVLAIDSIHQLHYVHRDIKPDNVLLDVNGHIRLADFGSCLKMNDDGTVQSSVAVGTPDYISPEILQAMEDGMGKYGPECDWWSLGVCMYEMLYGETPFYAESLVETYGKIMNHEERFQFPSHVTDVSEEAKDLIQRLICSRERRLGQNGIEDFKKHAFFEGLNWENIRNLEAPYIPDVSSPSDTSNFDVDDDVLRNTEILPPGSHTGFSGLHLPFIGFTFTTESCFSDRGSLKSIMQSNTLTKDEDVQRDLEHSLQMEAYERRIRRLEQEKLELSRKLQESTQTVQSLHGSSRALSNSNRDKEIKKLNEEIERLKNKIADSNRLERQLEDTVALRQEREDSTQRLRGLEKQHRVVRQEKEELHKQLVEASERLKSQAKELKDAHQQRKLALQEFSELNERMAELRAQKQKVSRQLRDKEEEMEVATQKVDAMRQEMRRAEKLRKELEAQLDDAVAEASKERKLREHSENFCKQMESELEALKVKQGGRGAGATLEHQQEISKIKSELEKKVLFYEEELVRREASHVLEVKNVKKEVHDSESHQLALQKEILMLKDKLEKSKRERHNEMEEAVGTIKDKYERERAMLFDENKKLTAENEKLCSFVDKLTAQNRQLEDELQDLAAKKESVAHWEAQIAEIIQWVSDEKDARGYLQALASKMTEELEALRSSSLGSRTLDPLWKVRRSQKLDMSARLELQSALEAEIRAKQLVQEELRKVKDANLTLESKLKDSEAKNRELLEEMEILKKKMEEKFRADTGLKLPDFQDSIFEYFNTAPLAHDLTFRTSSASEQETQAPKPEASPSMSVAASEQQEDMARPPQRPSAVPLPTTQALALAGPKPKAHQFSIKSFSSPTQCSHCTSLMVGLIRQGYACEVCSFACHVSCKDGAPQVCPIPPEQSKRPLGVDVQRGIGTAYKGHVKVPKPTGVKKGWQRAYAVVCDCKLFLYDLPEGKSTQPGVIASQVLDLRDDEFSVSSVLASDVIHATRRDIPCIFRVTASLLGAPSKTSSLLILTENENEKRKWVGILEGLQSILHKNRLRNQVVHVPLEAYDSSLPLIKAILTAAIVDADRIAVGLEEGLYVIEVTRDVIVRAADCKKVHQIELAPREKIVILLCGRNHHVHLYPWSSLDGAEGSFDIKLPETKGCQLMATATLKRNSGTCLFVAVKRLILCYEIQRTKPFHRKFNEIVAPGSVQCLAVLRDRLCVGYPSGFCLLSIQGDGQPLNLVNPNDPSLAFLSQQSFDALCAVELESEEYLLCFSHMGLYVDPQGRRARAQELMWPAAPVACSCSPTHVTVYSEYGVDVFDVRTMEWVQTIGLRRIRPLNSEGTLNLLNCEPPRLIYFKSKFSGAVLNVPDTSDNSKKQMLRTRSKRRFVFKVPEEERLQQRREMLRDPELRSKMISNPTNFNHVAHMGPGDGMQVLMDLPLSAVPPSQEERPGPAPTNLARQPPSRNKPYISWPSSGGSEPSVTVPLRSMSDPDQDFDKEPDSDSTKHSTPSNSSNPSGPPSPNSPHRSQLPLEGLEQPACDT

[10] = peptide DIk[…], labeling site Lys2
[11] = peptide […]kLPETK, labeling site Other

SMILES | % Inhibition PFTAIRE1 [1] [%] | % Inhibition TEC [2] [%] | % Inhibiton, CDK7 [3] [%] | % Inhibition RON [4] [%] | % Inhibiton, ACK [5] [%] | % Inhibiton, MST2 ([6]; proteome HEL) [%] | % Inhibiton, MST2 ([6]; proteome PC3) [%] | % Inhibition PRPK ([7]; proteome HEL) [%] | % Inhibition PRPK ([7]; proteome PC3) [%] | % Inhibiton, IRAK4 ([8]; proteome HEL) [%] | % Inhibiton, IRAK4 ([8]; proteome PC3) [%] | % Inhibiton, MRCKb [9, 10] [%] | % Inhibiton, MRCKb [9, 11] [%]
COc1cc(C(=O)N2CCC(N3CCN(C)CC3)CC2)ccc1Nc1ncc2c(n1)N(C1CCCC1)c1ccccc1C(=O)N2C [Compound 25, 11-cyclopentyl-2-((2-methoxy-4-(4-(4-methylpiperazin-1-yl)piperidine-1-carbonyl)phenyl)amino)-5-methyl-5H-benzo[e]pyrimido[5,4-b][1,4]diazepin-6(11H)-one] | -9.7 | 8.9 | 67.9 | -17.5 | 43.5 | -4.5 | -9.2 | -8.1 | -11.3 | 13.4 | -7.4 | -5.1 | 6.2
CCOc1cc(C(=O)N2CCC(N3CCN(C)CC3)CC2)ccc1Nc1ncc2c(n1)N(C1CCCC1)c1ccccc1C(=O)N2C [Compound 26] | -14.3 | 5.8 | 22.2 | 11.1 | 20.1 | 10.8 | -9.4 | 9.6 | -5.6 | -2.3 | 1.4 | 1.8 | 9.2

Source: article PMC3914206
